Results on 3 substances are retold here after patent US8324166B2, “Neuroprotection using NAP-like and SAL-like peptide mimetics” (Ramot at Tel-Aviv University, Ltd., priority 2007, dated 2012).

“And” between values parts separate entries of the source, which are not always exact repeats. Identical values can stand only once. Ends that are not written are not given here.

Series [1] relates to neurons in mixed neuroglial cultures intoxicated with beta-amyloid 1-42. In words: MAP2 assay: neuronal survival in mixed neuroglial cultures following beta-amyloid intoxication. It counts as cell-based, rat. The method, then: Newborn rats were used to prepare cerebral cortical astrocytes cell cultures as described above. After suspending the cells in D1, they were centrifuged at 100 g for 5 minutes and the supernatant discarded. The cell pellet was resuspended in solution D2 containing 5% heat inactivated horse serum (Biological Industries, Beit Haemek, Israel), 0.1% gentamycin, 0.1% penicillin-streptomycin-nystatin, 1% N3 (defined medium components essential for neuronal development in culture, (Romijn HJ, Brain Res., 254:583-9 (1981)]), 15 μg/ml 5′-fluoro-2-deoxyuridine (FUDR, Sigma, Rehovot, Israel), and 3 μg/ml uridine (Sigma, Rehovot, Israel) in DMEM. Cells were counted in a hemocytometer, diluted in D2 and 17,000 cells/well/96 well plate were seeded on 8-day-old astrocytes prepared as described above. The medium was changed the next day to D2 without FUDR and uridine. Cells were allowed to grow for one week at 37° C. 10% CO2 before experiments were performed.
Neuronal survival in neuroglial cultures following beta-amyloid intoxication was assayed using the neuron specific antibody, MAP2. […] The cells were incubated for 5 days in 10% CO2 at 37°C.
5 days after the addition of beta-amyloid and the peptide, the cells were fixed by removing the media from each well and the addition of cold methanol. The cells were left in the refrigerator overnight. The cells were immunostained with anti-MAP2 as previously described (Brooke S M et al., Neurosci. Lett., 267:21-4(1999)): the methanol was removed and the cells were washed 4 times with phosphate buffered saline (PBS). Blocking for non-specific antibody binding was performed by incubating the cells in 5% non-fat milk in PBS overnight at 4° C. The blocking solution was then removed and anti-MAP2(1:1000; Sigma, Rehovot, Israel) was added to each well. The cells were incubated for 30 minutes at room temperature, followed by 4 washes with PBS. Biotinylated anti-mouse IgG (1:200, Vector Laboratories, Burlingame, Calif., USA) was then added to each well, and the cells were incubated for 30 minutes at room temperature followed by 4 washes with PBS. The cells were incubated at room temperature for 30 minutes with the ABC reagent (Vector Laboratories, Burlingame, Calif., USA) prepared according to the manufacturer's protocol and then washed 4 times with PBS. ABTS reagent, prepared according to the manufacturer's protocol (Vector Laboratories, Burlingame, Calif., USA) was then added to each well and the cells were incubated for 20 minutes in the dark at room temperature. The plates were read in an ELISA plate reader at 405nm. As blanks, wells containing untreated cells and no primary antibody were used.

Series [2] relates to cerebral cortical astrocytes intoxicated with ZnCl2. The experiment in a line: MTS assay: survival of astrocytes following intoxication with ZnCl2. It counts as cell-based, mice. Here is the method:
Cell cultures were prepared as previously described (McCarthy KD, de Vellis J., J. Cell Biol., 85:890-902 (1980); Gozes I et al., J. Pharmacol. Exp. Ther., 257:959-66 (1991)). Newborn mice (Harlan Biotech Israel Ltd., Rehovot, Israel) were sacrificed by decapitation and the brain was removed. The cortex was dissected and meninges were removed. The tissue was minced with scissors and placed in Hank's balanced salts solution X1 (HBSS, Biological Industries, Beit Haemek, Israel), 15 mM HEPES Buffer pH 7.3 (Biological Industries, Beit Haemek, Israel) and 0.25% trypsin (Biological Industries, Beit Haemek, Israel) in an incubator at 37° C. 10% CO2 for 20 minutes. The cells were then placed in 8 ml of solution D1 containing 10% heat inactivated fetal calf serum (Biological Industries, Beit Haemek, Israel), 0.1% gentamycin sulphate solution (Biological Industries, Beit Haemek, Israel) and 0.1% penicillin-streptomycin-nystatin solution (Biological Industries, Beit Haemek, Israel) in Dulbecco's modified Eagle's medium (DMEM, Sigma, Rehovot, Israel). The cells were allowed to settle, and were then transferred to a new tube containing 2.5 ml of D1 and triturated using a Pasteur pipette. The process was repeated twice more. Once all the cells were suspended, cell density was determined using a hemocytometer (Neubauer improved, Germany) and 1×10^6 cells/15 ml D1 were inoculated into each 75 cm^2 flask (Corning, Corning, N.Y., USA). Cells were incubated at 37° C. 10% CO2. The medium was changed after 24 hours and cells were grown until confluent (one week).
The flasks containing the cerebral cortical astrocytes were shaken to dislodge residual neurons and oligodendrocytes that may be present. Flasks were then washed with 10 ml cold HBSSx1, HEPES15 mM. 5 ml versene-trypsin solution (BioLab, Jerusalem, Israel) was added to each flask and the flasks were incubated at room temperature for 5 minutes to remove astrocytes. The flasks were then shaken to dislodge the cells. The versene-trypsin solution was neutralized with 5 ml D1. The cell suspension was collected and centrifuged at 100 g for 10 minutes. The supernatant was removed and the cells resuspended in D1. The cells were plated in 96 well plates (Corning, Corning, N.Y., USA) (each flask to 2 plates) and incubated until confluent at 37° C. 10% CO2.
The survival of astrocytes following intoxication with ZnCl2 was tested using the MTS assay. One week after sub-culturing the astrocytes into 96-well plates, the astrocyte growth medium was aspirated and fresh medium containing 200μM ZnCl2 and ascending concentrations of NATLSHIHQ (SEQ ID NO:4) or STPTAIPQ (SEQ ID NO:6)(concentration range: 10^−16-10^−7M) was added to the cells. The cells were incubated for 4 hours in 10% CO2 at 37°C., followed by an MTS assay using Celltiter 96 Aqueous non-radioactive cell proliferation assay (Promega, Madison, WI, USA) which was performed according to the manufacturer's instructions and read in an ELISA plate reader at 490nm.
(Tetrazolium dyes change colour on reduction, which living cells bring about.)

Series [3] deals with model of fetal alcohol syndrome. The conditions noted are these: in vivo, ip; cited from earlier work.
For series [4], the target named is beta III tubulin (Homo sapiens, UniProt Q13509). The conditions noted are these: affinity chromatography; cited from earlier work.
Series [5] deals with normal aging rats. Conditions: intranasal administration; cited from earlier work.
The conditions of series [6]: in vivo; cited from earlier work.
In series [7] the test system is animal models simulating parts of the Alzheimer's disease pathology. The conditions noted are these: in vivo; cited from earlier work.
Series [8] concerns cell cultures exposed to a wide variety of toxins. Conditions: against a wide variety of toxins; cited from earlier work.
Series [9] relates to ischemic injury. The conditions noted are these: after ischemic injury; cited from earlier work.
The subject of series [10] is closed head injury in mice. Conditions: cited from earlier work.
In series [11] the test system is neurons of the central nervous system. The conditions noted are these: in vitro assays and in vivo disease models; cited from earlier work.

beta III tubulin, sequence (Q13509 whole entry): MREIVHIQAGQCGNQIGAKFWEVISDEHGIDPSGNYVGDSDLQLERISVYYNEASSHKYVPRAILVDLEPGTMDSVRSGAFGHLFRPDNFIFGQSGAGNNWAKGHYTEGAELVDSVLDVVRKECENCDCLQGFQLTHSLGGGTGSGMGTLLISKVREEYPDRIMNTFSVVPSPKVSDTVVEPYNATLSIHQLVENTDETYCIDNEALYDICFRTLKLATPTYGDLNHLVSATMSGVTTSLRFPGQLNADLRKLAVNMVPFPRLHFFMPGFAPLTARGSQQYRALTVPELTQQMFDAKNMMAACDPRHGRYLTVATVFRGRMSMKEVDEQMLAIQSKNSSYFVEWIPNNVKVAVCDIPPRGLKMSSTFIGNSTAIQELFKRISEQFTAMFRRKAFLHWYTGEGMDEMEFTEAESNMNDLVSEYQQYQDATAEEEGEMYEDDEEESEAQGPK
beta III tubulin, sequence (Q71U36 whole entry partner): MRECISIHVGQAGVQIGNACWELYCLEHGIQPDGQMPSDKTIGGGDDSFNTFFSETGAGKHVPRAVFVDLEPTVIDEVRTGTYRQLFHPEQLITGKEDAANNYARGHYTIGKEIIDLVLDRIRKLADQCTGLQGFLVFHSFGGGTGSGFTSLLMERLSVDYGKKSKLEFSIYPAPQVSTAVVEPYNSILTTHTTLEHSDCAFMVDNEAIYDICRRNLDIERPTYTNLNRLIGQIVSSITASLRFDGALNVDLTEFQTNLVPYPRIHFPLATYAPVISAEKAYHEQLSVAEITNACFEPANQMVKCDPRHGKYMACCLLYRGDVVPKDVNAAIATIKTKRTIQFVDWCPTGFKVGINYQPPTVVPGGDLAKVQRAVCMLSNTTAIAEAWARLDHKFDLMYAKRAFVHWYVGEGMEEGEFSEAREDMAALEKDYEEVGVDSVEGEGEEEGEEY

Turning to STPTAIPQ (synthetic NAP-like peptide), in series [1] (MAP2 assay, 5 days, tested 10^−19M to 10^−5M, significance vs negative control in cell), the “effective concentrations on neuronal survival: Neurons (25 μM beta-amyloid)” value was 10^−13 M and 10 ^−5 M. Besides, the “activity in neuroprotection assay” value in series [1] (neuroglial cells, beta-amyloid) is on record as “active”; in [2] (astrocytes, ZnCl2), “active”. Also, the “effective concentrations on astrocyte survival: Astrocytes (200 μM ZnCl2)” value in series [2] (MTS assay, 4 hours, tested 10^−16-10^−7M, significance vs negative control in cell) is 10^−7 (p < 0.05) M.
With Asn-Ala-Pro-Val-Ser-Ile-Pro-Gln [NAP], the “fetal death after intraperitoneal injection of alcohol” value in series [3] is on record as “inhibited”. Also, the interaction with tubulin entry in series [4] is on record as “specifically interact with beta III tubulin”. For the same substance, the “performance in the Morris water maze” value in [5] is “improved performance”. In addition, the “crossing of the blood-brain barrier” value in series [6] was “can cross the blood-brain barrier”. Also, in series [7], the “protection in Alzheimer's disease models” value was “protective”. In series [8], the “neuroprotective activity in cell cultures” value was “neuroprotective activity at femtomolar concentrations”. The “infarct volume and motor function deficits” value in series [9] was “reduced infarct volume and motor function deficits”. Also, the “damage caused by closed head injury” value in series [10] is given as “reducing damage”.
For SALLRSIPA, the “neuron survival in response to various insults” value in series [11] is recorded as “keep neurons of the central nervous system alive”.
